{"source": "patent US20110064694A1", "about": "“ANTI-HEPATITIS C ACTIVITY OF MESO-TETRAKIS-PORPHYRIN ANALOGUES” (YALE UNIVERSITY, priority 2009, published 2011)", "key": {"[1]": {"system": "HCV genotype 1b (Con1) replicon cells Huh-luc/neo-ET", "experimental": "Reversibility of the action of compound 6 against genotype 1b HCV replicon. Huh-luc/neo-ET cells were seeded at a density of 2×10^5 cells per well in a 6-well plate, and were incubated for 12 days with DMSO control or up to 1 μM of compound 6 in the absence of G418. Cells were split every three days when media and compounds were replenished, and samples were collected for RNA quantification. compound 6 was removed on Day 12 when cells were split and cultured in the presence of 250 μg/ml of G418. Replicon cells were continuously monitored for another 12 days, during which cells were split and sampled whenever reaching confluence. Cell viability was measured by CellTiter-Glo luminescent cell viability assay following manufacturer's procedures (Promega), and the HCV RNA was quantitated by qRT-PCR and normalized as described above.\nThe goal of anti-HCV treatment is to completely eliminate the virus from infected cells. In order to assess the reversibility of the antiviral action and the possibility of replicon clearance, we incubated Huhluc/neo-ET cells with increasing concentrations of compound 6 for […] free from G418 (FIG. 4). On Day 12 compound 6 was removed and 250 μgml G418 was reintroduced while the replicon RNA level and cell growth were monitored for another 12 days."}, "[2]": {"system": "HCV genotype 1b (Con 1 isolate) subgenomic replicon", "test": "microbe, parasite or virus in culture", "assay_type": "cell-based, Hepatitis C virus", "experimental": "(§1) Cells. HCV genotype 1b (Con 1 isolate) subgenomic replicon cell line with luciferase reporter (Huh-luc/neo-ET) was kindly provided by Ralf Bartenschlager from the University of Heidelberg (37). Huh-luc/neo-ET cells were cultured in Dulbecco's modified Eagle medium (DMEM , supplemented with 10% fetal bovine serum (FBS), 1 mM nonessential amino acids, and 250 μg/ml of G418 (Invitrogen). Genotype 2a (JFH-I isolate) subgenomic replicon cells YSGR-JFH were cultured in DMEM containing 10 To fetal calf serum, 1 mM nonessential amino acids and 400 μg/ml G418 (31). An additional genotype 1b (Conl) replicon cell line (4291BBix) was cultured in similar media but with 3 μg/ml blasticidin (22).\nDetermination of antiviral activities. Ff-luciferase reporter activity was used to monitor the replication of HCV replicons in Huhluc/neo-ET cells free from G418. Replicon cells were seeded at the density of 5×10^3 cells per well in 96-well plates. The following day, replicon cells were incubated in duplicates with DMSO or serially diluted tetraphenylporphyrin (TPP) analogues at 37″C. 72 hrs after co-incubation, cells were lysed with ice-cold passive lysis reagent after PBS wash, and the luciferase activity was measured with the luciferase assay kit (Promega) and Tecan FARCyte luminometer (GE Healthcare) following the manufacturers' descriptions. The relative light units (RLU) were adjusted as percentage readings of the compound-free controls and the 50% effective concentration (EC50) was determined from dose-effect curve by nonlinear regression analysis using Origin 6.1 (OriginLab Software). TPP analogues were also screened in vitro against HIV-I IIIB and HBV as previously described (26,41). Briefly 1×10^3 MT-2 cells per well were exposed in triplets to 0.1TC1D50/cell (50% of the tissue culture infectious dose) of HIV-1 IIIB and cultured in the presence of compounds. The EC50 values were estimated by MTT-based colorimetric quantitation of viral CPE after 5 days. Anti-HBV activities were evaluated in 2.2.15 cells by means of Southern DNA hybridization."}, "[3]": {"system": "HCV genotype 2a (JFH-1) replicon", "test": "HCV RNA quantification by qRT-PCR in YSGR-JFH cells", "assay_type": "cell-based, Hepatitis C virus", "experimental": "as §1\nActivity of compound 6 against genotype 2a (JFH-I) replicons. In parallel to Huh-luc/neo-ET cells, 1×10^5 YSGR-JFH cells per well were incubated with DMSO control, compound 6, or recombinant human IFNα-2a (Pestka Biomedical Laboratories) in 6-well plates. Cells were harvested after 72 hrs of co-incubation and HCV RNAs were quantitated by qRT-PCR and normalized as described above."}, "CEM cells": {"system": "CEM cells", "test": "Cytotoxicity in CEM cells", "conditions": "read-out: Cytotoxicity CC50 CEM"}, "cytochrome c": {"target": "cytochrome c (Equus caballus, UniProt P00004)", "sequence (P00004 2-105 limits assumed)": "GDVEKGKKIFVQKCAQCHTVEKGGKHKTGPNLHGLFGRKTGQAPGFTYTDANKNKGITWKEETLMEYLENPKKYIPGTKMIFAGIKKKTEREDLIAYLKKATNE", "conditions": "read-out: Kd, binding to cyt c; cited from earlier work"}}, "note": "Like-named read-outs stand apart in the source and are kept apart here."}
{"smiles": "O=C(O)c1cc(C(=O)O)cc(-c2ccc(-c3c4nc(c(-c5ccc(-c6cc(C(=O)O)cc(C(=O)O)c6)cc5)c5ccc([nH]5)c(-c5ccc(-c6cc(C(=O)O)cc(C(=O)O)c6)cc5)c5nc(c(-c6ccc(-c7cc(C(=O)O)cc(C(=O)O)c7)cc6)c6ccc3[nH]6)C=C5)C=C4)cc2)c1", "note": "[Compound 6, Meso-teftakis-(3,5-dicarboxy-4,4′-biphenyl)porphyrin]", "values": [{"measurement": "cells surviving under G418", "setting": "[1]; 50 nM for 12 days, 6 days after the removal of inhibitor", "value": 8.5, "unit": "%"}, {"measurement": "replicon-positive cells rebounded", "setting": "[1]; 50 nM for 12 days, 12 days after removal of inhibitor", "value": 13.1, "unit": "%"}, {"measurement": "cells surviving under G418", "setting": "[1]; 100 nM for 12 days, end of the experiment", "value": 0.007, "unit": "%"}, {"measurement": "cell viability after G418 reintroduction", "setting": "[1]; 300 nM and 1 μM for 12 days, 9 days after coincubation with G418", "value": "no longer viable"}, {"measurement": "reduction in the HCV RNA levels", "setting": "[1]; 300 nM and above, after 12 days of exposure", "value": "approximately 4.5 1o916"}, {"measurement": "cells surviving under G418", "setting": "[1]; 300 nM for 9 days, 15-day rebound period with G418", "value": 0.4, "unit": "%"}, {"measurement": "replicon clearance", "setting": "[1]; 1 μM for 9 days, 15-day rebound period with G418", "value": "achieved complete “cure”"}, {"measurement": "toxicity in cells during the 12-day treatment", "setting": "[1]; up to 1 μM, 12 days", "value": "did not cause significant toxicity"}, {"measurement": "selective index in culture (CC50/EC50)", "setting": "[2]; CC50 in naïve Huh-7 cells / EC50", "value": "over 2000"}, {"measurement": "EC50", "setting": "[2]; HCV replicons in vitro, read-out: anti-HCV EC50", "value": 24, "unit": "nM"}, {"measurement": "EC50", "setting": "[2]; Huh-luc/neo-ET, 72 hrs, luciferase, read-out: Antiviral Activity EC50 HCV", "value": "24 ± 5.1", "unit": "nM"}, {"measurement": "EC50", "setting": "[2]; Table 3, metal M in porphyrin core, read-out: EC50 anti-HCV activity, metallation of porphyrin core of compound 6", "value": "19 ± 5.2", "unit": "nM"}, {"measurement": "improvement in anti-HCV EC50 over compound 2", "setting": "[2]; relative to lead compound 2", "value": 75, "unit": "fold"}, {"measurement": "EC50", "setting": "[2]; unit inferred, read-out: EC50 against HCV genotype 1b Conl replicons", "value": "24 ± 5", "unit": "nM"}, {"measurement": "EC50 in YSGR-JFH (genotype 2a) relative to EC50 in Huh-luc/neo-ET (genotype 1b)", "setting": "[3]; 72 hrs", "value": "over 57 fold"}, {"measurement": "less effective against genotype 2a (JFH-1) than against genotype 1b (Conl) replicons", "setting": "[3]; anti-HCV EC50", "value": 57, "unit": "times"}, {"measurement": "EC50", "setting": "[3]; genotype 2a, 72 hrs, HCV RNA by qRT-PCR, read-out: antiviral EC50 against YSGR-JFH replicon cells", "value": "1380 ± 148", "unit": "nM"}, {"measurement": "CC50", "setting": "CEM cells", "value": "> 50000", "unit": "nM"}, {"measurement": "Kd", "setting": "cytochrome c", "value": "1500 ± 170", "unit": "nM"}]}
